Experiments:
[1] = test system: A2058 cells; test: In vivo CR administration in A2058 xenograft with or without combined treatment; design: species or system NOD/SCID mice
Procedure: FIGS. 7A-H show amyloidogenesis suppresses tumor growth. (A) Sections of melanomas receiving combined treatment were stained with cleaved caspase 3 antibodies followed by CR staining Arrowheads and arrows indicate condensed and fragmented nuclei, respectively. Scale bar: 50 μm. (B) 1×10^6 A2058 cells were s.c. injected into NOD/SCID mice. After 7 days, mice were treated with 1 mg/30 g CR via i.p. injection one day prior to combined treatment. Tumor volumes were measured weekly (mean±SD, ANOVA). […] Lysis buffer containing CR served as a positive control. (D) Kaplan-Meier survival curves were compared (Log-rank test). (E and F) Both detergent-soluble and -insoluble fractions of tumor lysates were used to quantitate amyloids, 3 tumors per group (mean±SD, n=3, Student's t-test). (G) Proteins were detected by immunoblotting, 3 tumors per group. (H) Schematic depiction of the interplay among MEK, ERK, and HSF1, and its role in regulating proteome stability. Balanced proteostasis suppresses toxic protein aggregation and amyloidogenesis, thereby facilitating tumorigenesis. See also FIG. 14.
This figure is related to FIG. 7. (A) CR treatment stimulates in vivo melanoma growth and renders melanomas partially resistant to combined MEK and proteasome inhibition. Tumors were harvested at sacrifice and weighed (mean±SD, n=10, ANOVA). (B) CR treatment exacerbates body weight loss in tumor-bearing mice. Body weights were recorded before xenografting and at sacrifice. To derive net body weights of melanoma-bearing mice, tumor weights were subtracted from total body weights. Results are presented as body weight changes before and after xenografting (paired Student's t-test).
A2058 cells were s.c. injected into the left flanks of 9-week-old female NOD.CB17-Prkdc/J (NOD/SCID) mice (The Jackson Laboratory). For CR treatment, mice were i.p. injected with PBS or CR one day prior to combined AZD6244 and Bortezomib treatments. Tumor volumes were calculated following the formula 4/3πR^3. For experimental metastasis, engineered A2058 cells were transplanted into 10-week-old female NOD/SCID mice via tail vein injections. All mouse experiments were performed under a protocol approved by The Jackson Laboratory Animal Care and Use Committee.

[2] = test system: ERK; test: Immunoblotting of ERK and MSK1 phosphorylation in HEK293T cells; type: cell-based; conditions: inhibitors overnight
Procedure: Whole-cell protein extracts were prepared in cold cell-lysis buffer (100 mM NaCl, 30 mM Tris-HCl pH 7.6, 1% Triton X-100, 30 mM NaF, 1 mM EDTA, 1 mM sodium orthovanadate, and Halt™ protease inhibitor cocktail from Thermo Scientific). Proteins were separated on SDS-PAGE gels and transferred to nitrocellulose membranes. Primary antibodies were applied in wash buffer overnight at 4° C. Peroxidase-conjugated secondary antibodies were applied at room temperature for 1 hr, and signals were visualized by SuperSignal West chemiluminescent substrate (Thermo Fisher Scientific), followed by exposure to films.

[3] = test system: ERK complexes precipitated from HEK293T cells; test: In vitro kinase assay with immunoprecipitated ERK complexes; type: biochemical; conditions: 1000 ng MBP
Procedure: Co-expressed GFP proteins served as internal controls. […] See also FIG. 10.
Samples were boiled for 5 min to stop reactions.

[4] = test system: HSF1; test: Dual HSF1 reporter assay (HSE-SEAP / CMV-GLuc) in HEK293T cells; type: cell-based; conditions: 20 μM U0126, 20 nM AZD6244, 1 μM FR180204 or 100 nM Sch772984
Procedure: (A) NIH3T3 cells were treated with HS at 43° C. for 30 min, 10 μM tubastatin A for 5 hr, 40 μM VER155008 for 1 hr, 500 nM MG132 for 1 hr, 200 nM 17-DMAG for 1 hr, and 2.5 mM azetidine for 15 min (B) The dual ELK1 reporter system, comprising a serum response element (SRE)-driven secreted embryonic alkaline phosphatase (SEAP) plasmid and a CMV-driven Gaussia luciferase (GLuc) plasmid, was transfected into HEK293T cells. After 24 hr, cells were treatments as in (A) and recovered overnight before measuring reporter activities (mean±SD, n=6, ANOVA). (C and D) NIH3T3 cells were treated with 20 μM U0126 or 20 nM AZD6244 for 3 hr followed by HS and 4-hr recovery. mRNA levels were quantitated by qRT-PCR (mean±SD, n=3, Student's t-test). (E) Immediately after HS, nuclear proteins of NIH3T3 cells treated as in (C) were extracted to measure HSF1-DNA binding by an ELISA-based assay (mean±SD, n=3, ANOVA). (F) HEK293T cells were transfected with dual HSF1 reporter plasmids, a heat-shock element (HSE)-driven SEAP plasmid and a CMV-GLuc plasmid. […] (G) HEK293T cells were treated with different inhibitors overnight. […] After 24 hr, cells were heat shocked at 43° C. for 30 min followed by overnight recovery (mean±SD, n=3, ANOVA). […]
FIGS. 8A-H illustrate that MEK and ERK inversely regulate the PSR. […] Cell viability was measured by a Guava EasyCyte™ flow cytometer using Guava ViaCount™ reagents (mean±SD, n=5, Student's t test). […] Levels of ERK1 and ERK2 mRNAs were quantitated in HEK293T cells transfected with ERK1-targeting siRNAs by qRT-PCR (mean±SD, n=3, ANOVA). […] Levels of ERK2 and ERK1 mRNAs were quantitated in HEK293T cells transfected with ERK2-targeting siRNAs by qRT-PCR (mean±SD, n=3, ANOVA).
Plasmids were transfected with TurboFect transfection reagent (Thermo Scientific). SEAP and luciferase activities in culture supernatants were quantitated using a Ziva® Ultra SEAP Plus Detection Kit (Jaden BioScience) and a Gaussia Luciferase Glow Assay Kit (Thermo Scientific), respectively. Luminescence signals were measured by a VICTORS Multilabel plate reader (PerkinElmer).

[5] = test system: HSF1 Ser326; test: HSF1 Ser326 phosphorylation by immunoblotting in HEK293T cells; type: cell-based; conditions: overnight, 20 μM U0126, 20 nM AZD6244, 1 μM FR180204 or 100 nM Sch772984
Procedure: This figure is related to FIG. 3. (A) Validation of phospho-HSF1 Ser326 antibodies. […] (B) MEK blockade impairs HSF1 Ser326 phosphorylation. […] (D-E) S326A mutation impairs HSF1 nuclear translocation. […] (F) Acute MEK depletion diminishes HSF1 proteins. […] HSF1 proteins were detected by immunoblotting. (G) ERK-mediated HSF1 Ser307 phosphorylation depends on MEK. […] Levels of phosphor-HSF1 Ser307 were measured by immunoblotting. (H) HSF1 Ser326 phosphorylation inhibits Ser307 phosphorylation.

SMILES	melanoma growth ([1]; 1 mg/30 g CR i.p.)	tumor suppression imposed by combined MEK and proteasome inhibition ([1]; 1 mg/30 g CR i.p. one day prior to combined treatment)	amyloids in tumor tissues ([1]; CR treatment)	animal survival ([1]; CR treatment)	body conditions ([1]; CR treatment)	tumor masses ([1]; CR treatment)	ubiquitination in tumors ([1]; CR treatment)	caspase 3 cleavage in tumors ([1]; CR-treated tumors)	penetration of CR into tumor tissues ([1]; absorbance of tumor lysates)	ERK phosphorylation [2]	phosphorylation of myelin basic protein (MBP) by precipitated ERK complexes [3]	transcriptional activation of HSF1 [4]	HSF1 Ser326 phosphorylation [5]
Nc1c(/N=N/c2ccc(-c3ccc(/N=N/c4cc(S(=O)(=O)O)c5ccccc5c4N)cc3)cc2)cc(S(=O)(=O)O)c2ccccc12 [CR, Congo red]	accelerated	potently antagonized	reduced	shortened	deteriorated	enlarged	did not diminish	reduced	intense light absorption of tumor lysates at 498 nm				
Nc1[nH]nc2nnc(-c3c(-c4ccccc4)nn4ccccc34)cc12 [FR180204]										promoted	blocked	activated	enhances
O=C(Nc1ccc2[nH]nc(-c3ccncc3)c2c1)[C@@H]1CCN(CC(=O)N2CCN(c3ccc(-c4ncccn4)cc3)CC2)C1 [Sch772984]										suppressed		activated	enhances

— US20180369203A1, “METHODS OF TREATING CANCER BY ADMINISTERING A MEK INHIBITOR IN COMBINATION WITH A PROTEASOME INHIBITOR” (The Jackson Laboratory, priority 2015, published 2018)
